Experimental data as given in patent US9179674B2, “Macrocyclic picolinamide compounds with fungicidal activity” (DOW AGROSCIENCES LLC, priority 2013, dated 2015).
Like-named read-outs stand apart in the source and are kept apart here.

How the values were obtained:
[1] = tested on: Mycosphaerella graminicola; Anamorph: Septoria tritici; test: Leaf Blotch of Wheat fungicidal activity (SEPTTR); format: in vivo; conditions: Zymoseptoria tritici; for pest or weed control at 100 ppm: rate 100 ppm; for pest or weed control at 121.5 g/ha: rate 121.5 g/H
Method: Evaluation of Fungicidal Activity: Leaf Blotch of Wheat (Mycosphaerella graminicola; Anamorph: Septoria tritici; Bayer code […]) Technical grades of materials were dissolved in acetone, which were then mixed with nine volumes of water containing 110 ppm Triton X-100. The fungicide solutions were applied onto wheat seedlings using an automated booth sprayer to run-off. All sprayed plants were allowed to air dry prior to further handling. All fungicides were evaluated using the aforementioned method for their activity vs. all target diseases. Wheat leaf blotch and brown rust activity were also evaluated using track spray applications, in which case the fungicides were formulated as EC formulations, containing 0.1% Trycol 5941 in the spray solutions. Wheat plants (variety Yuma) were grown from seed in a greenhouse in 50% mineral soil/50% soil-less Metro mix until the first leaf was fully emerged, with 7-10 seedlings per pot. These plants were inoculated with an aqueous spore suspension of Septoria tritici either prior to or after fungicide treatments. After inoculation the plants were kept in 100% relative humidity (one day in a dark dew chamber followed by two to three days in a lighted dew chamber at 20° C.) to permit spores to germinate and infect the leaf. The plants were then transferred to a greenhouse set at 20° C. for disease to develop. When disease symptoms were fully expressed on the 1st leaves of untreated plants, infection levels were assessed on a scale of 0 to 100 percent disease severity. Percent disease control was calculated using the ratio of disease severity on treated plants relative to untreated plants.

Puccinia triticina = test: Wheat Brown Rust fungicidal activity (PUCCRT); format: in vivo; conditions: Puccinia triticina; for pest or weed control at 100 ppm: rate 100 ppm; for pest or weed control at 121.5 g/ha: rate 121.5 g/H
Method: Technical grades of materials were dissolved in acetone, which were then mixed with nine volumes of water containing 110 ppm Triton X-100. The fungicide solutions were applied onto wheat seedlings using an automated booth sprayer to run-off. All sprayed plants were allowed to air dry prior to further handling. All fungicides were evaluated using the aforementioned method for their activity vs. all target diseases. Wheat leaf blotch and brown rust activity were also evaluated using track spray applications, in which case the fungicides were formulated as EC formulations, containing 0.1% Trycol 5941 in the spray solutions. Wheat plants (variety Yuma) were grown from seed in a greenhouse in 50% mineral soil/50% soil-less Metro mix until the first leaf was fully emerged, with 7-10 seedlings per pot. These plants were inoculated with an aqueous spore suspension of Septoria tritici either prior to or after fungicide treatments. After inoculation the plants were kept in 100% relative humidity (one day in a dark dew chamber followed by two to three days in a lighted dew chamber at 20° C.) to permit spores to germinate and infect the leaf. The plants were then transferred to a greenhouse set at 20° C. for disease to develop. When disease symptoms were fully expressed on the 1st leaves of untreated plants, infection levels were assessed on a scale of 0 to 100 percent disease severity. Percent disease control was calculated using the ratio of disease severity on treated plants relative to untreated plants. Evaluation of Fungicidal Activity: Wheat Brown Rust (Puccinia triticina; Synonym: Puccinia recondite f sp. tritici; Bayer code PUCCRT) Wheat plants (variety Yuma) were grown from seed in a greenhouse in 50% mineral soil/50% soil-less Metro mix until the first leaf was fully emerged, with 7-10 seedlings per pot. These plants were inoculated with an aqueous spore suspension of Puccinia triticina either prior to or after fungicide treatments. After inoculation the plants were kept in a dark dew room at 22° C. with 100% relative humidity overnight to permit spores to germinate and infect the leaf. The plants were then transferred to a greenhouse set at 24° C. for disease to develop. Fungicide formulation, application and disease assessment followed the procedures as described in the Example A.

[2] = 24 h, 1 Day Protectant, read-out: Disease control SEPTTR 1DP
[3] = 72 h, 3 Day Curative, read-out: Disease control SEPTTR 3DC
[4] = 24 h, 1 Day Protectant, read-out: Disease control PUCCRT 1DP
[5] = 72 h, 3 Day Curative, read-out: Disease control PUCCRT 3DC

Compound `CCCCCO[C@@H]1[C@@H](Cc2ccc(C)cc2)COC[C@H](NC(=O)c2nccc(OC)c2OC(C)=O)C(=O)O[C@H]1C` [Compound F53] has a pest or weed control at 100 ppm [1, 2] of 80 to 100%, a pest or weed control at 121.5 g/ha [1, 2] of 80 to 100% and a pest or weed control at 100 ppm [1, 3] of 80 to 100%. It also gave a pest or weed control at 121.5 g/ha [1, 3] of 0 to 80%, a pest or weed control at 100 ppm (Puccinia triticina; [4]) of 80 to 100% and a pest or weed control at 121.5 g/ha (Puccinia triticina; [4]) of 80 to 100%. For the same compound, the pest or weed control at 100 ppm (Puccinia triticina; [5]) was 80 to 100% and the pest or weed control at 121.5 g/ha (Puccinia triticina; [5]) was 0 to 80%.

Compound `CCCCCO[C@@H]1[C@@H](CCc2ccccc2)COC[C@H](NC(=O)c2nccc(OC)c2OC(C)=O)C(=O)O[C@H]1C` [Compound F55] has a pest or weed control at 100 ppm [1, 2] of 80 to 100%, a pest or weed control at 100 ppm [1, 3] of 80 to 100% and a pest or weed control at 100 ppm (Puccinia triticina; [4]) of 80 to 100%. The pest or weed control at 100 ppm (Puccinia triticina; [5]) was 80 to 100%.

`COc1ccnc(C(=O)N[C@H]2COC[C@H](CCc3ccccc3)[C@@H](OC(=O)C3CC3)[C@H](C)OC2=O)c1OC(C)=O` [Compound F57] showed a pest or weed control at 100 ppm [1, 2] of 80 to 100%, a pest or weed control at 121.5 g/ha [1, 2] of 80 to 100% and a pest or weed control at 100 ppm [1, 3] of 80 to 100%. The pest or weed control at 121.5 g/ha [1, 3] was 80 to 100%, the pest or weed control at 100 ppm (Puccinia triticina; [4]) was 80 to 100% and the pest or weed control at 121.5 g/ha (Puccinia triticina; [4]) was 80 to 100%. It also gave a pest or weed control at 100 ppm (Puccinia triticina; [5]) of 80 to 100% and a pest or weed control at 121.5 g/ha (Puccinia triticina; [5]) of 0 to 80%.

`COc1ccnc(C(=O)N[C@H]2COC[C@H](CCc3ccccc3)[C@@H](Oc3ccc(C)cc3)[C@H](C)OC2=O)c1OC(C)=O` [Compound F58] was tested, and the pest or weed control at 100 ppm [1, 2] was 80 to 100%, the pest or weed control at 121.5 g/ha [1, 2] was 80 to 100% and the pest or weed control at 100 ppm [1, 3] was 80 to 100%. The pest or weed control at 121.5 g/ha [1, 3] was 80 to 100%, the pest or weed control at 100 ppm (Puccinia triticina; [4]) was 80 to 100% and the pest or weed control at 121.5 g/ha (Puccinia triticina; [4]) was 80 to 100%. It also gave a pest or weed control at 100 ppm (Puccinia triticina; [5]) of 80 to 100% and a pest or weed control at 121.5 g/ha (Puccinia triticina; [5]) of 0 to 80%.

In the case of `COc1ccnc(C(=O)N[C@H]2COC[C@H](Cc3ccc(F)cc3)[C@@H](Oc3ccccc3)[C@H](C)OC2=O)c1OC(C)=O` [Compound F59], the pest or weed control at 100 ppm [1, 2] is reported as 80 to 100%, the pest or weed control at 121.5 g/ha [1, 2] is reported as 80 to 100% and the pest or weed control at 100 ppm [1, 3] is reported as 80 to 100%. It also gave a pest or weed control at 121.5 g/ha [1, 3] of 80 to 100%, a pest or weed control at 100 ppm (Puccinia triticina; [4]) of 80 to 100% and a pest or weed control at 121.5 g/ha (Puccinia triticina; [4]) of 80 to 100%. It also gave a pest or weed control at 100 ppm (Puccinia triticina; [5]) of 80 to 100% and a pest or weed control at 121.5 g/ha (Puccinia triticina; [5]) of 0 to 80%.

`COc1ccnc(C(=O)N[C@H]2COC[C@H](Cc3ccc(C)cc3)[C@@H](OC(=O)C3CC3)[C@H](C)OC2=O)c1OC(C)=O` [Compound F61] gave a pest or weed control at 100 ppm [1, 2] of 80 to 100%, a pest or weed control at 121.5 g/ha [1, 2] of 80 to 100% and a pest or weed control at 100 ppm [1, 3] of 80 to 100%. It also gave a pest or weed control at 121.5 g/ha [1, 3] of 0 to 80%, a pest or weed control at 100 ppm (Puccinia triticina; [4]) of 80 to 100% and a pest or weed control at 121.5 g/ha (Puccinia triticina; [4]) of 80 to 100%. The pest or weed control at 100 ppm (Puccinia triticina; [5]) was 80 to 100% and the pest or weed control at 121.5 g/ha (Puccinia triticina; [5]) was 0 to 80%.

`COc1ccnc(C(=O)N[C@H]2COC[C@H](Cc3ccc(C)cc3)[C@@H](OCCCC(F)(F)F)[C@H](C)OC2=O)c1OC(C)=O` [Compound F62] was tested, and the pest or weed control at 100 ppm [1, 2] was 80 to 100%, the pest or weed control at 121.5 g/ha [1, 2] was 80 to 100% and the pest or weed control at 100 ppm [1, 3] was 80 to 100%. It also gave a pest or weed control at 121.5 g/ha [1, 3] of 80 to 100%, a pest or weed control at 100 ppm (Puccinia triticina; [4]) of 80 to 100% and a pest or weed control at 121.5 g/ha (Puccinia triticina; [4]) of 80 to 100%. It also gave a pest or weed control at 100 ppm (Puccinia triticina; [5]) of 80 to 100% and a pest or weed control at 121.5 g/ha (Puccinia triticina; [5]) of 0 to 80%.

For `COc1ccnc(C(=O)N[C@H]2COC[C@H](Cc3ccc(C)cc3)[C@@H](Oc3ccccc3)[C@H](C)OC2=O)c1OC(C)=O` [Compound F63], the pest or weed control at 100 ppm [1, 2] was 80 to 100%, the pest or weed control at 121.5 g/ha [1, 2] was 80 to 100% and the pest or weed control at 100 ppm [1, 3] was 80 to 100%. For the same compound, the pest or weed control at 121.5 g/ha [1, 3] was 80 to 100%, the pest or weed control at 100 ppm (Puccinia triticina; [4]) was 80 to 100% and the pest or weed control at 121.5 g/ha (Puccinia triticina; [4]) was 80 to 100%. The pest or weed control at 100 ppm (Puccinia triticina; [5]) was 80 to 100% and the pest or weed control at 121.5 g/ha (Puccinia triticina; [5]) was 0 to 80%.

Compound `COc1ccnc(C(=O)N[C@H]2COC[C@H](Cc3ccc(C)cc3)[C@@H](OC3CCCC3)[C@H](C)OC2=O)c1OC(C)=O` [Compound F64] has a pest or weed control at 100 ppm [1, 2] of 80 to 100%, a pest or weed control at 100 ppm [1, 3] of 80 to 100% and a pest or weed control at 100 ppm (Puccinia triticina; [4]) of 80 to 100%. For the same compound, the pest or weed control at 100 ppm (Puccinia triticina; [5]) was 80 to 100%.
